Experimental data from patent US20260174761A1 (priority 2022, published 2026).

Columns and labels:
[1] = tested on: lipopolysaccharide (LPS)-induced microglial activation; conditions: recent studies of the inventors; cited from earlier work
[2] = tested on: human retinal pigment epithelium (RPE)-19 cell line; experiment: In vitro AMD model: RPE-19 cells stimulated with TNF-α and INF-γ (TI), secreted pro-inflammatory mediators; type: cell-based; conditions: RPE cells pretreated with compound, TNF-α and INF-γ stimulation
Text: TNF-α and INF-γ stimulation (TI).
Next, the effect of 2-CL-MGV-1 was examined in an in vitro model of age-related macular degeneration (AMD). Human retinal pigment epithelium (RPE)-19 cell line stimulated with TNF-α and INF-γ (TI) are known to mimic AMD by complement activation and increased levels of circulating cytokines.

[3] = tested on: IBD mice; experiment: DSS-induced inflammatory bowel disease (IBD) mouse model: colon IL-6 by ELISA and colon length; type: in vivo, C57BL6 mice; conditions: for reduction of IL-6 levels within the colon: male mice, 2.5% DSS for 5 days, treatment from day 4 for four days, 2-CL-MGV-1 15 mg/kg, dexamethasone 0.75 mg/kg, vs DSS without treatment
Description: FIG. 1 includes a bar graph showing that interleukin (IL) 6 levels in the gut of IBD mice are reduced in response to 2-CL-MGV-1 treatment. Nine-weeks-old C57BL6 male mice were given 2.5% dextran sulfate sodium (DSS) in drinking water for 5 days. Naive mice were given water only. The treatments: 2-CL-MGV-1 and dexamethasone were given on day 4 for four days. […] ANOVA followed by Bonferroni's post-hoc test was performed. ***p<0.00001 compared to control.
FIG. 2 includes a bar graph showing that the treatment with 2-CL-MGV-1 reduces the shortening of IBD mice colon. Nine-weeks-old C57BL6 male mice were given 2.5% DSS in drinking water for 5 days. Naive mice were given water only. The treatments: 2-CL-MGV-1 and dexamethasone were given on day 4 for four days.
FIG. 4 includes a vertical bar graph showing that IL 6 levels in the gut of IBD mice are reduced in response to 2-CL-MGV-1 treatment. C57BL female mice aged of 8-10 weeks were given 2.5% DSS in their drinking water for 7 days. Vehicle group mice were given water only and DMSO injections on the 4th day for 4 days. DSS group received DSS with DMSO (as a vehicle) that were given on the 4th day for 4 days. The treatment group received 2-CL-MGV-1 (15 mg/kg) and DMSO as a vehicle were given on the 4th day for 4 days. […] ANOVA followed by Bonferroni's post-hoc test was performed. ***p<0.001 compared to control.
FIG. 5 includes a vertical bar graph showing that the treatment with 2-CL-MGV-1 reduces the shortening of IBD mice colon. C57BL female mice aged of 8-10 weeks were given 2.5% DSS in their drinking water for 7 days. Vehicle group mice were given water only and DMSO injections on the 4th day for 4 days. DSS group received DSS with DMSO (as a vehicle) that were given on the 4th day for 4 days. The treatment group received 2-CL-MGV-1 (15 mg/kg) and DMSO (as a vehicle) that were given on the 4th day for 4 days. […] ANOVA followed by Bonferroni's post-hoc test was performed. ***p<0.001 compared to control.
C57BL mice 8-10 weeks old were given 2.5% DSS in their drinking water for 7 days. On the fourth day, the mice were injected subcutaneously (S.C) with either DMSO or 2-CL-MGV-1 (30 μl) for four days. The mice were sacrificed on the eighth day of the experiment.
In the IBD experiment, 2-Cl-MGV-1 was injected subcutaneously for four days, three days after inflammation induction in the colon, using dextran sulfate sodium (DSS). On the following day, the mice were sacrificed, and the colon was removed. Colon lengths were measured, and cytokine levels were detected by ELISA.

[4] = high concentrations (above 100 μM); cited from earlier work
[5] = female mice, 2.5% DSS for 7 days, 2-CL-MGV-1 15 mg/kg s.c. from 4th day for 4 days, vs DSS+vehicle (DMSO)

Compound	LPS-induced microglial activation [1]	TI-induced secretion of IL-8 [2]	TI-induced secretion of complement C3 [2]	TI-induced secretion of complement C5 [2]	TI-induced secretion of reactive oxygen species (ROS) [2]	decrease in IL-6 content in the colon [3, 5] [%]	increase in colon length [3, 5] [%]	colon shrinkage effect compared to dexamethasone ([3]; male DSS mice, 2-CL-MGV-1 15 mg/kg vs dexamethasone 0.75 mg/kg)	colon shrinkage (shortening) effect ([3]; male and female DSS mice, 2-CL-MGV-1 15 mg/kg for four days)	reduction of IL-6 levels within the colon [3] [%]	effect on IL-6 secretion relative to dexamethasone (DEX) treatment ([3]; murine IBD model, compared to DEX)	lethal effects [4]
CN(C)C(=O)Oc1nc(-c2ccccc2Cl)nc2ccccc12 [2-Cl-MGV-1, 2-chlorophenyl quinazolin-4-yl dimethylcarbamate]	inhibit	significantly reduced	significantly reduced	significantly reduced	significantly reduced	64	26	significantly more pronounced	alleviated the colon shrinkage effect	75	about 75%	very few lethal effects
CCC(C)N(C)C(=O)c1cc2ccccc2c(-c2ccccc2Cl)n1 (centres unmarked) [PK 11195, reference compound]	–	–	–	–	–	–	–	–	–	–	–	pronounced lethal effects
C[C@@H]1C[C@H]2[C@@H]3CCC4=CC(=O)C=C[C@]4(C)[C@@]3(F)[C@@H](O)C[C@]2(C)[C@@]1(O)C(=O)CO [dexamethasone, reference compound]	–	–	–	–	–	–	–	–	–	20	–	–
